Measurements: US6410249B1, “Odorant receptors” (priority 1999, dated 2002)

Tests used:
receptor 5.24 [1] = molecular target: T1, receptor 5.24 (Carassius auratus, UniProt Q9PW88); assay: cAMP accumulation in receptor 5.24-expressing HEK 293 cells; type: cell-based, goldfish; conditions: 0.1 mM or 10 mM
T1 construct: The receptor 5.24 full length cDNA detects 1-2 bands in genomic DNA blots; expressed in transfected cells; host or cells: HEK 293 cells expressing SV40 large T antigen (293-TSA)
T1 sequence (Q9PW88 25-877): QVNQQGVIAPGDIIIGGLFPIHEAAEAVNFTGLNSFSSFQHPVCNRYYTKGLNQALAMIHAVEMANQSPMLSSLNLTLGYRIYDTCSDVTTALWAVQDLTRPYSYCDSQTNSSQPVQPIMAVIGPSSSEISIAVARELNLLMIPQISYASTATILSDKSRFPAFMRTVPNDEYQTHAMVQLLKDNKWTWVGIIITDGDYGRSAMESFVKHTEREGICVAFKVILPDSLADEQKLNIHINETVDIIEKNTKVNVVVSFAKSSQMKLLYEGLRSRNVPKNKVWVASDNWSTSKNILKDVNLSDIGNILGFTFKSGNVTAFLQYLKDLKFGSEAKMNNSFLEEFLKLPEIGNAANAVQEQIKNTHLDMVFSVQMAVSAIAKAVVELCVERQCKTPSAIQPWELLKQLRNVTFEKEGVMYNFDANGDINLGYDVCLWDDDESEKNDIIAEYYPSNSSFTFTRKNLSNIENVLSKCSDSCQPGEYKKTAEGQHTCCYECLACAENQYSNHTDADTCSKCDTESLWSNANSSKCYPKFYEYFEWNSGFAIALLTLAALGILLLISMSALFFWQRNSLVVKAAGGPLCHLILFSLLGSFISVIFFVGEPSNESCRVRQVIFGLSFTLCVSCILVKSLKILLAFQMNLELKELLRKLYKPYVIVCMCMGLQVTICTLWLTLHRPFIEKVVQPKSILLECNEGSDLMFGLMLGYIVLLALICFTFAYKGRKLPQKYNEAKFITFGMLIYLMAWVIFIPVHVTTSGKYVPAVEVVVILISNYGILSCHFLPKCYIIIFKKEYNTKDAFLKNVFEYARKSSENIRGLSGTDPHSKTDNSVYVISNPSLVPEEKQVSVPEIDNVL
Source text: (§1) High-Affinity Binding of Radiolabeled L-Arginine to the Cloned Goldfish Odorant Receptor. To determine the affinity of the cloned goldfish amino acid receptor for basic amino acids, we characterized the ligand-receptor interaction by radiolabeled ligand binding to receptors expressed in mammalian cells. Human embryonic kidney (HEK) 293 cells were transfected with expression plasmids containing the receptor 5.24 cDNA insert. […] We next wished to determine what second messenger pathway receptor 5.24 couples to in HEK 293 cells. Control cells or cells expressing receptor 5.24 were exposed to varying concentrations of arginine and assayed for the accumulation of IP3 and cAMP.
(§2) IP3 and cAMP Measurements. For measurements of IP3 and cAMP, cell lines 5.24-20 and 2.2-9 (negative control) were plated at densities of 3.5×10^5 cells/well in 24 well plates and incubated overnight in DMEM containing 10% FBS. All subsequent manipulations prior to reaction termination were performed at 37° C. in 5% CO2. […] IP3 levels were determined by a radioreceptor competition assay (Dupont NEN). For cAMP measurements, after the 3 hour amino acid-free preincubation cells were washed once with PBS, preincubated for 15 min in PBS containing 0.5 mM IBMX, and exposed to odorants in 400 μl PBS/0.5 mM IBMX for 30 min. cAMP levels were determined by radioimmunoassay (DuPont NEN).

[2] = test system: goldfish olfactory neurons; assay: multi-unit recordings from the goldfish olfactory epithelium; type: cell-based; conditions: 100 μM
receptor 5.24 [3] = molecular target: T1, receptor 5.24; assay: biochemical; type: binding
Protocol: Structure-Activity Properties of Compounds Interacting with the Cloned Goldfish Amino Acid Odorant Receptor. An understanding of how odorant receptors are used to encode olfactory information requires a characterization of the odorant specificities of individual receptor types. We therefore wished to determine the relative specificity of receptor 5.24 for structurally related ligands. […] Briefly, 3H-arginine binding to membranes from receptor 5.24-expressing HEK 293 cells was assayed in the absence or presence of varying concentrations of competitor ligands.
Mammalian Cell Culture and DNA Transfections. For cell transfections, the receptor 5.24 cDNA insert was subcloned into two expression vectors: CMVI, which utilizes a human cytomegalovirus (CMV) immediate early promoter-enhancer plus the CMV intron A sequence to drive expression, and 608RX-2.2L, which is similar to CMVI except the cDNA insert is followed by an internal ribosome entry site (IRES)—enhanced green fluorescent protein (EGFP) coding sequence; 608RX-2.2L also contains a puromycin resistance gene. For transient assays, HEK 293 cells expressing the SV40 large T antigen (293 TSA cells) were transfected with the CMVI-receptor 5.24 or CMVI control plasmid using lipofectamine (Life Technologies) and harvested at 48 hours for membrane preparations. For stable cell lines, 293-TSA cells were transfected with the 608RX-2.2L-receptor 5.24 plasmid or a control 608RX-2.2L plasmid and selected in puromycin. Colonies showing high levels of EGFP fluorescence (as judged by epifluorescence microscopy) were picked, expanded, and screened for 3H-L-arginine binding (see below).
Membrane Preparations and Ligand Binding Assays. Membranes for ligand binding assays were prepared by washing confluent cells three times with phosphate buffered saline (PBS), detaching cells with a PBS-based enzyme-free dissociation solution, and resuspending cells in ice-cold 5.0 mM Hepes, pH 7.4, 1.0 mM EDTA, 1.0 μg/ml leupeptin, 0.5 mM PMSF. All subsequent manipulations were performed on ice. After a 30 min incubation, the cell suspension was homogenized and centrifuged at 100,000×g for 30 min. Cell membrane pellets were washed twice by resuspension and centrifugation in binding buffer (20 mM Hepes, pH 7.4, 1.0 mM EDTA, 2.0 mM MgCl2, 1.0 μg/ml leupeptin, 0.5 mM PMSF), resuspended in binding buffer, and frozen at −80° C.
Saturation binding assays were performed using 20-25 μg of membrane protein in a final volume of 100 μl binding buffer and increasing concentrations of [2,3-3H] L-arginine (specific activity=40 Ci/mmol; Dupont NEN). Non-specific binding was measured in the presence of 500 μM unlabeled L-arginine. Competition assays were performed with 500 nM [2,3-3H] L-arginine and increasing concentrations of competitor ligands. All incubations were performed at 4° C. for 60 min and terminated by rapid filtration through Whatman GF/C filters pretreated with ice cold 0.1% polyethyleneimine. Filters were washed three times with 4.0 ml ice cold 20 mM Hepes, pH 7.4, and retained radioactivity was measured by scintillation counting.

receptor 5.24 [4] = molecular target: T1, receptor 5.24; assay: IP3 accumulation in receptor 5.24-expressing HEK 293 cells; type: cell-based, goldfish; conditions: varying concentrations
Source text: as §1, §2

N=C(N)NCCC[C@H](N)C(=O)O [L-Arginine]
change in cAMP levels, in words (receptor 5.24 [1]): does not cause a detectable change | locations with spontaneous activity that responded [2]: 25 out of 28 | Ki (receptor 5.24 [3]): 80 nM | binding to receptor 5.24, in words (receptor 5.24 [3]; comparative binding studies): highest affinities | IP3 accumulation, in words (receptor 5.24 [4]): specific increase in IP3
